Data published in US20240091317A1, “USE OF GLP-2 ANALOGUES IN PATIENTS WITH RENAL INSUFFICIENCY” (Zealand Pharma A/S, priority 2020, published 2024).

What was measured:
[1] = in vivo; cited from earlier work
[2] = Phase 1 trial: PK of a single subcutaneous dose of 10 mg glepaglutide in subjects with severe renal impairment/ESRD vs normal renal function; type: in vivo, human
Method: The study was designed as a two-stage design, open-label, multi-center, non-randomized trial evaluating the PK of a single, subcutaneous dose of 10 mg glepaglutide in subjects with varying degrees of renal function. The renal function was calculated by the estimated glomerular filtration rate (eGFR) according to the Modification of Diet in Renal Disease (MDRD) equation.
Sixteen Caucasian subjects were enrolled, 4 with end stage renal disease (ESRD) not on dialysis (eGFR<15 mL/min), 4 with severe renal impairment (eGFR<30 mL/min) and 8 matching controls with normal renal function (eGFR>90 mL/min) (Table 1). Demographics, except eGFR, was similar across groups (Table 1).
Glepaglutide (ZP1848, 10 mg) was provided in a single-use vial containing 1 mL (an extractable volume of 0.5 mL) of a clear, colourless solution for subcutaneous injection, with a concentration of 20 mg/mL glepaglutide.
PK-blood samples were collected over a 14 day period following a single dose of 10 mg glepaglutide in the abdomen. The PK-samples were analyzed for glepaglutide, ZP2469 and ZP2711 using a GLP-validated LC/MS/MS assay.
The primary PK parameters were area under the curve between dose and last measurable concentration (AUCt), extrapolated to infinity (AUCinf) and calculated from 0 to 168 hours (AUC0-168) and the maximum plasma concentration (Cmax), which were computed for glepaglutide, ZP2469, ZP2711. A constructed analyte “glepaglutide-total” (glepaglutide+ZP2469+ZP2711) was used for the primary endpoint, and analysed using a non-compartmental approach.

[3] = in particular moderate or severe renal impairment, or ESRD; cited from earlier work

Compound: GLP-2 [3-33]: truncated GLP-2 [3-33] (DGSFSDEMNTILDNLAARDFINWLIQTKITD; Glucagon-like peptide 2; UniProt P01275 148-178, looked up, fragment)
- Half-life in humans [1]: 27 min

Compound: H-HGEGTFSSELATILDALAARDFIAWLIATKITDKKKKKK-NH2 [ZP1848]
- Clearance in patients with renal impairment ([2]; human, in vivo): cleared normally
- Difference in total exposure (AUC0-168h) and peak plasma concentrations (Cmax), severe renal impairment/ESRD vs normal renal function ([2]; single SC dose): no clinically relevant difference
- Difference in primary PK parameters (AUCt, AUCinf, AUC0-168, Cmax), severe renal impairment and ESRD vs healthy matched subjects ([2]; single SC dose 10 mg glepaglutide): no statistically significant differences

Compound: Hy-His-Ala-Asp-Gly-Ser-Phe-Ser-Asp-Glu-Met-Asn-Thr-Ile-Leu-Asp-Asn-Leu-Ala-Ala-Arg-Asp-Phe-Ile-Asn-Trp-Leu-Ile-Gln-Thr-Lys-Ile-Thr-Asp-OH [GLP-2 [1-33]]
- Half-life in humans [1]: around 7 minutes

Compound: CC[C@H](C)[C@H](NC(=O)[C@H](Cc1ccccc1)NC(=O)[C@H](CC(=O)O)NC(=O)[C@H](CCCNC(=N)N)NC(=O)[C@H](C)NC(=O)[C@H](C)NC(=O)[C@H](CC(C)C)NC(=O)[C@H](CC(N)=O)NC(=O)[C@H](CC(=O)O)NC(=O)[C@H](CC(C)C)NC(=O)[C@@H](NC(=O)[C@@H](NC(=O)[C@H](CC(N)=O)NC(=O)[C@H](CCSC)NC(=O)[C@H](CCC(=O)O)NC(=O)[C@H](CC(=O)O)NC(=O)[C@H](CO)NC(=O)[C@H](Cc1ccccc1)NC(=O)[C@H](CO)NC(=O)CNC(=O)[C@H](CC(=O)O)NC(=O)CNC(=O)[C@@H](N)Cc1c[nH]cn1)[C@@H](C)O)[C@@H](C)CC)C(=O)N[C@@H](CC(N)=O)C(=O)N[C@@H](Cc1c[nH]c2ccccc12)C(=O)N[C@@H](CC(C)C)C(=O)N[C@H](C(=O)N[C@@H](CCC(N)=O)C(=O)N[C@H](C(=O)N[C@@H](CCCCN)C(=O)N[C@H](C(=O)N[C@H](C(=O)N[C@@H](CC(=O)O)C(=O)O)[C@@H](C)O)[C@@H](C)CC)[C@@H](C)O)[C@@H](C)CC [teduglutide]
- Clearance in subjects with renal dysfunction [3]: impaired
